For 18 compounds, IC50 results are on record in patent publication US20260347373A1, “HETEROCYCLIC COMPOUNDS, COMPOSITIONS THEREOF, AND METHODS OF TREATMENT THEREWITH” (BeOne Medicines I GmbH, priority 2023, published 2026).

Like-named read-outs stand apart in the source and are kept apart here.

In experiment [1] the target is KRAS G12D (Homo sapiens, UniProt P01116, G12D). Description: KRAS G12D Probe Displacement Assay (TR-FRET, GDP-loaded). Format: binding. From the text: (§1) The synthetic routes of probe 1 and 2, which have been disclosed in PCT/CN2022/070676, are hereby incorporated herein.
For orientation: TR-FRET usually uses a lanthanide donor and a delayed reading to cut background.

Experiment [2] addresses WT KRAS (Homo sapiens, UniProt P01116). The experiment is described as follows: KRAS WT Probe Displacement Assay (TR-FRET, GDP-loaded). Format: binding.
Source text: as §1

The mark [3] stands for this setting: KRAS G12D, read-out: KRAS^G12D Probe Displacement Assay IC50.
The mark [4] stands for this setting: KRAS WT, read-out: KRAS^WT Probe Displacement Assay IC50.
The mark [5] stands for this setting: KRAS^G12D Probe Displacement Assay IC50, KRAS G12D.
The mark [6] stands for this setting: KRAS^WT Probe Displacement Assay IC50, KRAS WT.

Chain of KRAS G12D (P01116 1-188 isoform P01116-2 G12D): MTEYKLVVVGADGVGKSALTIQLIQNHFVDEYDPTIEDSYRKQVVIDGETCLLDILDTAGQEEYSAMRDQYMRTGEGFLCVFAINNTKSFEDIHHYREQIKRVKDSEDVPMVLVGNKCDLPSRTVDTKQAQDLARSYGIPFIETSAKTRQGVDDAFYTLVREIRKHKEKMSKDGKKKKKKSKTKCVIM
Chain of WT KRAS (P01116 1-188 isoform P01116-2): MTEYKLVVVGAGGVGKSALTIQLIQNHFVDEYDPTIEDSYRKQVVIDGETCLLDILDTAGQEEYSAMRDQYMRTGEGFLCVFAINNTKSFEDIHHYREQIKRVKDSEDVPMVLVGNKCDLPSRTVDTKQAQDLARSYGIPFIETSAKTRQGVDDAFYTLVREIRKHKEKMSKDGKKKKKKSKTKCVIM

Take `COC1CN(CC2(COc3nc4c5c(nc(-c6cc(N)cc(C)c6C(F)(F)F)c(F)c5n3)OCC[C@@H]3[C@@H]5CC[C@H](CN43)N5)CC2)C1` [Example 83, 3-((6aR,7S,10R)-1-fluoro-13-((1-((3-methoxyazetidin-1-yl)methyl)cyclopropyl)methoxy)-5,6,6a,7,8,9,10,11-octahydro-4-oxa-3,11a,12,14,15-pentaaza-7,10-methanocyclohepta [4,5]cycloocta [1,2,3-de]naphthalen-2-yl)-5-methyl-4-(trifluoromethyl)aniline]: the IC50 (in general, the concentration needed to halve the response being measured) in experiment [1] (setting [3]) was less than 0.3 nM; in experiment [2] (setting [4]), 3 to 1000 nM.

Consider `Cc1cc(N)cc(-c2nc3c4c(nc(OCC5(CN6C[C@H]7CC[C@@H](C6)O7)CC5)nc4c2F)N2C[C@H]4CC[C@H](N4)[C@H]2CCO3)c1C(F)(F)F` [Example 106, 3-((6aR,7S,10R)-13-((1-(((1R,5S)-8-oxa-3-azabicyclo [3.2.1]octan-3-yl)methyl)cyclopropyl)methoxy)-1-fluoro-5,6,6a, 7,8,9,10,11-octahydro-4-oxa-3,11a,12,14,15-pentaaza-7,10-methanocyclohepta [4,5]cycloocta [1,2,3-de]naphthalen-2-yl)-5-methyl-4-(trifluoromethyl)aniline], for which the IC50 in experiment [1] (setting [3]) is less than 0.3 nM; in experiment [2] (setting [4]) it was 3 to 1000 nM.

In the case of `Cc1cc(N)cc(-c2nc3c4c(nc(OCC5(CN6CCC7(CC6)CC7(F)F)CC5)nc4c2F)N2C[C@H]4CC[C@H](N4)[C@H]2CCO3)c1C(F)(F)F` [Example 158, 3-((6aR,7S,10R)-13-((1-((1,1-difluoro-6-azaspiro[2.5]octan-6-yl)methyl)cyclopropyl)methoxy)-1-fluoro-5,6,6a,7,8,9,10,11-octahydro-4-oxa-3,11a,12,14,15-pentaaza[7,10]methanocyclohepta[4,5]cycloocta[1,2,3-de]naphthalen-2-yl)-5-methyl-4-(trifluoromethyl)aniline], the IC50 in experiment [1] (setting [3]) was less than 0.3 nM; in experiment [2] (setting [4]) it was 0.3 to 3 nM.

Regarding `Cc1nc(N)cc(-c2nc3c4c(nc(OCC5(CN6CCC(=C(F)F)C6)CC5)nc4c2F)N2C[C@H]4CC[C@H](N4)[C@H]2CCO3)c1C(F)(F)F` [Example 150, 4-((6aR,7S,10R)-13-((1-((3-(difluoromethylene)pyrrolidin-1-yl)methyl)cyclopropyl)methoxy)-1-fluoro-5,6,6a,7,8,9,10,11-octahydro-4-oxa-3,11a,12,14,15-pentaaza-7,10-methano-cyclohepta[4,5]cycloocta [1,2,3-de]naphthalen-2-yl)-6-methyl-5-(trifluoromethyl)pyridin-2-amine], the results for the IC50 in experiment [1] (setting [3]) and in experiment [2] (setting [4]) were less than 0.3 nM and 3 to 1000 nM, respectively.

For the compound `C[C@]1(COc2nc3c4c(nc(-c5cc(N)cc(Cl)c5C(F)(F)F)c(F)c4n2)OCC[C@@H]2[C@@H]4CC[C@H](CN32)N4)CCCN(C2CCOCC2)C1` [Example 196, 3-chloro-5-((6aR,7S,10R)-1-fluoro-13-(((S)-3-methyl-1-(tetrahydro-2H-pyran-4-yl)piperidin-3-yl)methoxy)-5,6,6a,7,8,9,10,11-octahydro-4-oxa-3,11a,12,14,15-pentaaza-7,10-methanocyclopenta[4,5]cycloocta[1,2,3-de]naphthalen-2-yl)-4-(trifluoromethyl)aniline], the IC50 in experiment [1] (setting [3]) was less than 0.3 nM; in experiment [2] (setting [4]), 0.3 to 3 nM.

Regarding `Cc1cc(N)cc(-c2nc3c4c(nc(OCC5(CN6C[C@@H](C)O[C@@H](C)C6)CC5(F)F)nc4c2F)N2C[C@H]4CC[C@H](N4)[C@H]2CCO3)c1C(F)(F)F` (single isomer, unassigned) [Example 22], the IC50 was less than 0.3 nM in experiment [1] (setting [3]) and 3 to 1000 nM in experiment [2] (setting [4]).

As for `Cc1cc(N)cc(-c2nc3c4c(nc(OCC5(CN6CCC(O)(C(F)(F)F)C6)CC5)nc4c2F)N2C[C@H]4CC[C@H](N4)[C@H]2CCO3)c1C(F)(F)F` (mixture of isomers) [Example 92, 1-((1-((((6aR,7S, 10R)-2-(5-amino-3-methyl-2-(trifluoromethyl)phenyl)-1-fluoro-5,6,6a,7,8,9,10,11-octahydro-4-oxa-3,11a,12,14,15-pentaaza-7,10-methanocyclohepta [4,5]cycloocta[1,2,3-de]naphthalen-13-yl)oxy)methyl)cyclopropyl)methyl)-3-(trifluoromethyl) pyrrolidin-3-ol], the IC50 in experiment [1] (setting [3]) is less than 0.3 nM; in experiment [2] (setting [4]), 3 to 1000 nM.

With `Cc1cc(N)cc(-c2nc3c4c(nc(OCC5(CN6CCC6)CC5(F)F)nc4c2F)N2C[C@H]4CC[C@H](N4)[C@H]2CCO3)c1C(F)(F)F` (single isomer, unassigned) [Example 57], the figures for the IC50 in experiment [1] (setting [3]) and in experiment [2] (setting [4]) were 0.3 to 3 nM and 3 to 1000 nM, respectively.

For `Cc1nc(N)cc(-c2nc3c4c(nc(OCC5(CN6CCC(=C(F)F)CC6)CC5)nc4c2F)N2C[C@H]4CC[C@H](N4)[C@H]2CCO3)c1C(F)(F)F` [Example 147, 4-((6aR,7S,10R)-13-((1-((4-(difluoromethylene)piperidin-1-yl)methyl)cyclopropyl)methoxy)-1-fluoro-5,6,6a,7,8,9,10,11-octahydro-4-oxa-3,11a,12,14,15-pentaaza-7,10-methano-cyclohepta[4,5]cycloocta [1,2,3-de]naphthalen-2-yl)-6-methyl-5-(trifluoromethyl)pyridin-2-amine], the IC50 in experiment [1] (setting [3]) is less than 0.3 nM; in experiment [2] (setting [4]) it was 3 to 1000 nM.

As to `Cc1cc(N)cc(-c2nc3c4c(nc(OCC5(CN6CC[C@@H](F)C6)CC5)nc4c2F)N2C[C@H]4CC[C@H](N4)[C@H]2CCO3)c1C(F)(F)F` [Example 86, 3-((6aR,7S,10R)-1-fluoro-13-((1-(((R)-3-fluoropyrrolidin-1-yl)methyl)cyclopropyl)methoxy)-5,6,6a,7,8,9,10,11-octahydro-4-oxa-3,11a,12,14,15-pentaaza-7,10-methanocyclohepta [4,5]cycloocta [1,2,3-de]naphthalen-2-yl)-5-methyl-4-(trifluoromethyl) aniline], the results for the IC50 in experiment [1] (setting [5]) and in experiment [2] (setting [6]) were less than 0.3 nM and 3 to 1000 nM, respectively.

Regarding `Cc1cc(N)cc(-c2nc3c4c(nc(O[C@@H](C)[C@@H]5[C@H]6C[C@H]6CN5C)nc4c2F)N2C[C@H]4CC[C@H](N4)[C@H]2CCO3)c1C(F)(F)F` [Example 223, 3-((6aR,7S,10R)-1-fluoro-13-((S)-1-((1S,2S,5R)-3-methyl-3-azabicyclo[3.1.0]hexan-2-yl)ethoxy)-5,6,6a,7,8,9,10,11-octahydro-4-oxa-3,11a,12,14,15-pentaaza-7,10-methanocyclohepta[4,5]cycloocta[1,2,3-de]naphthalen-2-yl)-5-methyl-4-(trifluoromethyl)aniline], the IC50 in experiment [1] (setting [3]) is less than 0.3 nM; in experiment [2] (setting [4]), 3 to 1000 nM.

`Cc1cc(N)cc(-c2nc3c4c(nc(OCC5(CN6CCC(=C(F)F)C6)CC5)nc4c2F)N2C[C@H]4CC[C@H](N4)[C@H]2CCO3)c1C(F)(F)F` [Example 149, 3-((6aR,7S,10R)-13-((1-((3-(difluoromethylene)pyrrolidin-1-yl)methyl)cyclopropyl)methoxy)-1-fluoro-5,6,6a,7,8,9,10,11-octahydro-4-oxa-3,11a,12,14,15-pentaaza-7,10-methano-cyclohepta[4,5]cycloocta [1,2,3-de]naphthalen-2-yl)-5-methyl-4-(trifluoromethyl) aniline]: the results for the IC50 in experiment [1] (setting [5]) and in experiment [2] (setting [6]) were less than 0.3 nM and 3 to 1000 nM, respectively.

Take `Cc1cc(N)cc(-c2nc3c4c(nc(N5CC(N(C)C)C5)nc4c2F)N2C[C@H]4CC[C@H](N4)[C@H]2CCO3)c1C(F)(F)F` [Example 32, 1-((6aR,7S,10R)-2-(5-amino-3-methyl-2-(trifluoromethyl)phenyl)-1-fluoro-5,6,6a,7,8,9,10,11-octahydro-4-oxa-3,11a,12,14,15-pentaaza-7,10-methanocyclohepta[4,5]cycloocta [1,2,3-de]naphthalen-13-yl)-N,N-dimethylazetidin-3-amine]: the figures for the IC50 in experiment [1] (setting [3]) and in experiment [2] (setting [4]) were 0.3 to 3 nM and 3 to 1000 nM, respectively.

As to `C=C1CN2C[C@H](F)C[C@@]2(COc2nc3c4c(nc(-c5cc(N)cc(Cl)c5C(F)(F)F)c(F)c4n2)OCC[C@@H]2[C@@H]4CC[C@H](CN32)N4)C1` [Example 209, 3-chloro-5-((6aR,7S,10R)-1-fluoro-13-(((2R,7aR)-2-fluoro-6-methylenetetrahydro-1H-pyrrolizin-7a(5H)-yl)methoxy)-5,6,6a,7,8,9,10,11-octahydro-4-oxa-3,11a,12,14,15-pentaaza-7,10-methanocyclohepta[4,5]cycloocta[1,2,3-de]naphthalene-2-yl)-4-(trifluoromethyl)aniline], the IC50 in experiment [1] (setting [3]) was less than 0.3 nM; in experiment [2] (setting [4]), 3 to 1000 nM.

Regarding `CO[C@@H]1C[C@@H](C(C)Oc2nc3c4c(nc(-c5cc(N)cc(C)c5C(F)(F)F)c(F)c4n2)OCC[C@@H]2[C@@H]4CC[C@H](CN32)N4)N(C)C1` (single isomer, unassigned) [Example 144], the IC50 in experiment [1] (setting [3]) is less than 0.3 nM; in experiment [2] (setting [4]), 3 to 1000 nM.

On to `Cc1cc(N)cc(-c2nc3c4c(nc(O[C@@H](C)[C@@H]5CCCN5C5CCOC5)nc4c2F)N2C[C@H]4CC[C@H](N4)[C@H]2CCO3)c1C(F)(F)F` (single isomer, unassigned) [Example 228], for which the IC50 is less than 0.3 nM in experiment [1] (setting [3]) and 3 to 1000 nM in experiment [2] (setting [4]).

In the case of `Cc1cc(N)cc(-c2nc3c4c(nc(OC[C@@]56C[C@H](F)CN5C[C@H](F)C6)nc4c2F)N2C[C@H]4CC[C@H](N4)[C@H]2CCO3)c1C(F)(F)F` [Example 213, 3-((6aR,7S,10R)-13-(((2R,6S,7as)-2,6-difluorotetrahydro-1H-pyrrolizin-7a(5H)-yl)methoxy)-1-fluoro-5,6,6a,7,8,9,10,11-octahydro-4-oxa-3,11a,12,14,15-pentaaza-7,10-methanocyclohepta[4,5]cycloocta[1,2,3-de]naphthalen-2-yl)-5-methyl-4-(trifluoromethyl)aniline], the IC50 lay in the range of 0.3 to 3 nM in experiment [1] (setting [3]) and 3 to 1000 nM in experiment [2] (setting [4]).

`CO[C@H]1CCN(C)[C@@H]1C(C)Oc1nc2c3c(nc(-c4cc(N)cc(C)c4C(F)(F)F)c(F)c3n1)OCC[C@@H]1[C@@H]3CC[C@H](CN21)N3` (single isomer, unassigned) [Example 75]: the concentration for half-maximal inhibition (IC50) is less than 0.3 nM in experiment [1] (setting [3]) and 3 to 1000 nM in experiment [2] (setting [4]).
